Measured values published in the NIST ThermoML archive (doi:10.1021/je2005402).
Numbers after ± are expanded uncertainties.

Conditions: Liquid, Ebulliometric method (Recirculating still)

Row | vapor or sublimation pressure (337.85 K) | vapor or sublimation pressure (363.25 K) | SMILES
1 | 101.32 ± 1.1 kPa |  | CO [methanol]
2 |  | 101.32 ± 1.1 kPa | COC(=O)OC [dimethyl carbonate]
